# Data reported in patent US20130303509A1, “NAMPT INHIBITORS” (AbbVie Inc., priority 2012, published 2013).
# System: PC3 cells
# Experiment: NAMPT Cell Proliferation Assay
# Format: cell-based
# Settings: Homo sapiens, PC-3, 120 h, 5 days incubation, cell viability by Cell Titer Glo
# Method in brief: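 Five-day CellTiter-Glo viability readout in PC3 cells grown in RPMI/10% heat-inactivated FBS. Compounds added after overnight attachment as a 10-fold dilution series, […]. Percent inhibition fitted to sigmoidal dose-response to derive IC50.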
row,Structure (SMILES),IC50
1,"CC(C)(C)C(=O)N1CCC(Oc2ccc(NC(=O)C3CN(c4cccnc4)C3)cc2)CC1 [Example 42, N-(4-{[1-(2,2-dimethylpropanoyl)piperidin-4-yl]oxy}phenyl)-1-(pyridin-3-yl)azetidine-3-carboxamide]",64.6 nM
2,"O=C(Nc1ccc(C2CCN(C(=O)Cc3cc(F)ccc3F)CC2)cc1)C1CN(c2cccnn2)C1 [Example 373, N-(4-{1-[(2,5-difluorophenyl)acetyl]piperidin-4-yl}phenyl)-1-(pyridazin-3-yl)azetidine-3-carboxamide]",5.95 nM
3,"Cc1cccc(C(=O)N2CCC(S(=O)(=O)c3ccc(NC(=O)C4CN(c5cccnn5)C4)cc3)CC2)c1 [Example 580, N-(4-{[1-(3-methylbenzoyl)piperidin-4-yl]sulfonyl}phenyl)-1-(pyridazin-3-yl)azetidine-3-carboxamide]",78 nM
4,"CC(C)(C)Cc1nnc(-c2ccc(NC(=O)C3CN(c4cccnn4)C3)cc2)o1 [Example 803, N-{4-[5-(2,2-dimethylpropyl)-1,3,4-oxadiazol-2-yl]phenyl}-1-(pyridazin-3-yl)azetidine-3-carboxamide]",1.61 nM
5,"O=C(Nc1ccc(C2CCN(C(=O)C3CCCC3)CC2)cc1)C1CN(c2cccnc2)C1 [Example 138, N-{4-[1-(cyclopentylcarbonyl)piperidin-4-yl]phenyl}-1-(pyridin-3-yl)azetidine-3-carboxamide]",0.23 nM
6,"O=C(Nc1ccc(C2CCN(C(=O)c3cncs3)CC2)cc1)[C@H]1CCN(c2cccnn2)C1 [Example 630, (3S)-1-(pyridazin-3-yl)-N-{4-[1-(1,3-thiazol-5-ylcarbonyl)piperidin-4-yl]phenyl}pyrrolidine-3-carboxamide]",8.12 nM
7,"O=C(Nc1ccc(OC2CCN(C(=O)C3CCC(F)(F)CC3)CC2)cc1)C1CN(c2ccnnc2)C1 [Example 270, N-[4-({1-[(4,4-difluorocyclohexyl)carbonyl]piperidin-4-yl}oxy)phenyl]-1-(pyridazin-4-yl)azetidine-3-carboxamide]",62.7 nM
8,"O=C(Nc1ccc(C2CCN(C(=O)c3ccccc3)CC2)cc1)C1CN(c2ccc(F)nn2)C1 [Example 818, N-[4-(1-benzoylpiperidin-4-yl)phenyl]-1-(6-fluoropyridazin-3-yl)azetidine-3-carboxamide]",29.4 nM
9,"Cc1ncccc1N1CC(C(=O)Nc2ccc(C3CCN(C(=O)c4cccnn4)CC3)cc2)C1 [Example 158, 1-(2-methylpyridin-3-yl)-N-{4-[1-(pyridazin-3-ylcarbonyl)piperidin-4-yl]phenyl}azetidine-3-carboxamide]",1300 nM
10,"CC[C@H](C)C(=O)N1CC[C@@H](Oc2ccc(NC(=O)C3CN(c4cccnn4)C3)cc2)C1 [Example 486, N-[4-({(3R)-1-[(2S)-2-methylbutanoyl]pyrrolidin-3-yl}oxy)phenyl]-1-(pyridazin-3-yl)azetidine-3-carboxamide]",6.24 nM
11,"CC(C)(C)Cn1cc(-c2ccc(NC(=O)C3CN(c4cccnn4)C3)cc2)cn1 [Example 751, N-{4-[1-(2,2-dimethylpropyl)-1H-pyrazol-4-yl]phenyl}-1-(pyridazin-3-yl)azetidine-3-carboxamide]",2.71 nM
12,"O=C(Nc1ccc(C2CCN(C(=O)CC3CCCC3)CC2)cc1)C1CN(c2cccnc2)C1 [Example 101, N-{4-[1-(cyclopentylacetyl)piperidin-4-yl]phenyl}-1-(pyridin-3-yl)azetidine-3-carboxamide]",0.31 nM
13,"O=C(Nc1ccc(OC2CCN(C(=O)C3CCOCC3)CC2)cc1)C1CN(c2ccnnc2)C1 [Example 306, 1-(pyridazin-4-yl)-N-(4-{[1-(tetrahydro-2H-pyran-4-ylcarbonyl)piperidin-4-yl]oxy}phenyl)azetidine-3-carboxamide]",34.7 nM
14,"O=C(Nc1ccc(C2CCN(C(=O)Cc3ccccc3F)CC2)cc1)[C@H]1CCN(c2cccnn2)C1 [Example 710, (3S)-N-(4-{1-[(2-fluorophenyl)acetyl]piperidin-4-yl}phenyl)-1-(pyridazin-3-yl)pyrrolidine-3-carboxamide]",10.3 nM
15,"O=C(Nc1ccc(S(=O)(=O)C2CCN(C(=O)c3ccccc3F)CC2)cc1)C1CN(c2cccnn2)C1 [Example 577, N-(4-{[1-(2-fluorobenzoyl)piperidin-4-yl]sulfonyl}phenyl)-1-(pyridazin-3-yl)azetidine-3-carboxamide]",93 nM
16,"CC(C)Cn1cc(-c2cc(C(=O)N[C@@H]3CCN(c4cccnn4)C3)cs2)cn1 [Example 623, 5-[1-(2-methylpropyl)-1H-pyrazol-4-yl]-N-[(3R)-1-(pyridazin-3-yl)pyrrolidin-3-yl]thiophene-3-carboxamide]",6170 nM
17,"CC(C)CCC(=O)N1CCC(S(=O)(=O)c2ccc(NC(=O)C3CN(c4cccnn4)C3)cc2)CC1 [Example 612, N-(4-{[1-(4-methylpentanoyl)piperidin-4-yl]sulfonyl}phenyl)-1-(pyridazin-3-yl)azetidine-3-carboxamide]",53.6 nM

row,Structure (SMILES),IC50
1,"Cc1ncccc1N1CC(C(=O)Nc2ccc(C3CCN(C(=O)CN4CCCC4)CC3)cc2)C1 [Example 166, 1-(2-methylpyridin-3-yl)-N-{4-[1-(pyrrolidin-1-ylacetyl)piperidin-4-yl]phenyl}azetidine-3-carboxamide]",1070 nM
2,"Cc1ncccc1N1CC(C(=O)Nc2ccc(C3CCN(C(=O)C4(C)CC4)CC3)cc2)C1 [Example 170, N-(4-{1-[(1-methylcyclopropyl)carbonyl]piperidin-4-yl}phenyl)-1-(2-methylpyridin-3-yl)azetidine-3-carboxamide]",65.5 nM
3,"O=C(Nc1ccc(O[C@@H]2CCN(C(=O)c3ccc(F)c(F)c3)C2)cc1)C1CN(c2ccnnc2)C1 [Example 451, N-(4-{[(3R)-1-(3,4-difluorobenzoyl)pyrrolidin-3-yl]oxy}phenyl)-1-(pyridazin-4-yl)azetidine-3-carboxamide]",86.8 nM
4,"O=C(Nc1ccc(O[C@@H]2CCN(C(=O)C3CC3)C2)cc1)C1CN(c2cccnn2)C1 [Example 502, N-(4-{[(3R)-1-(cyclopropylcarbonyl)pyrrolidin-3-yl]oxy}phenyl)-1-(pyridazin-3-yl)azetidine-3-carboxamide]",4.74 nM
5,"Cc1cc(C)cc(CC(=O)N2CCC(c3ccc(NC(=O)[C@H]4CCN(c5cccnn5)C4)cc3)CC2)c1 [Example 683, (3S)-N-(4-{1-[(3,5-dimethylphenyl)acetyl]piperidin-4-yl}phenyl)-1-(pyridazin-3-yl)pyrrolidine-3-carboxamide]",9.02 nM
6,"CC(C)Cn1cc(-c2ccc(C(=O)N[C@@H]3CCN(c4cccnc4)C3)s2)cn1 [Example 603, 5-[1-(2-methylpropyl)-1H-pyrazol-4-yl]-N-[(3R)-1-(pyridin-3-yl)pyrrolidin-3-yl]thiophene-2-carboxamide]",576 nM
7,"CC(C)CCC(=O)N1CCC(Oc2ccc(NC(=O)C3CN(c4cccnc4)C3)cc2)CC1 [Example 37, N-(4-{[1-(4-methylpentanoyl)piperidin-4-yl]oxy}phenyl)-1-(pyridin-3-yl)azetidine-3-carboxamide]",6.48 nM
8,"O=C(Nc1ccc(C2CN(C(=O)c3ccccc3F)C2)cc1)[C@H]1CCN(c2cccnn2)C1 [Example 785, (3S)—N-{4-[1-(2-fluorobenzoyl)azetidin-3-yl]phenyl}-1-(pyridazin-3-yl)pyrrolidine-3-carboxamide]",1.17 nM
9,"CC(C)(C)CC(=O)N1CC(Oc2ccc(NC(=O)C3CN(c4ccnnc4)C3)cc2)C1 [Example 254, N-(4-{[1-(3,3-dimethylbutanoyl)azetidin-3-yl]oxy}phenyl)-1-(pyridazin-4-yl)azetidine-3-carboxamide]",12 nM
10,"O=C(Nc1ccc(O[C@@H]2CCN(C(=O)c3ccccc3F)C2)cc1)[C@H]1CCN(c2cccnn2)C1 [Example 775, (3S)-N-(4-{[(3R)-1-(2-fluorobenzoyl)pyrrolidin-3-yl]oxy}phenyl)-1-(pyridazin-3-yl)pyrrolidine-3-carboxamide]",2.15 nM
11,"Cc1c(F)cccc1C(=O)N1CCC(c2ccc(NC(=O)C3CN(c4cccnn4)C3)cc2)CC1 [Example 387, N-{4-[1-(3-fluoro-2-methylbenzoyl)piperidin-4-yl]phenyl}-1-(pyridazin-3-yl)azetidine-3-carboxamide]",2.2 nM
12,"O=C(Nc1ccc(C2CCN(C(=O)C3CCOC3)CC2)cc1)C1CN(c2ccnnc2)C1 (stereo not shown) [Example 542, 1-(pyridazin-4-yl)-N-{4-[1-(tetrahydrofuran-3-ylcarbonyl)piperidin-4-yl]phenyl}azetidine-3-carboxamide]",67.6 nM
13,"Cc1ncccc1N1CC(C(=O)Nc2ccc(C3CCN(C(=O)c4cccn4C)CC3)cc2)C1 [Example 188, 1-(2-methylpyridin-3-yl)-N-(4-{1-[(1-methyl-1H-pyrrol-2-yl)carbonyl]piperidin-4-yl}phenyl)azetidine-3-carboxamide]",22.4 nM
14,"O=C(Nc1ccc(O[C@@H]2CCN(C(=O)CC3CC3)C2)cc1)C1CN(c2cccnn2)C1 [Example 485, N-(4-{[(3R)-1-(cyclopropylacetyl)pyrrolidin-3-yl]oxy}phenyl)-1-(pyridazin-3-yl)azetidine-3-carboxamide]",6.35 nM
15,"O=C(Nc1ccc(OC2CCN(C(=O)Cc3ccc(F)cc3)CC2)cc1)C1CN(c2ccnnc2)C1 [Example 276, N-[4-({1-[(4-fluorophenyl)acetyl]piperidin-4-yl}oxy)phenyl]-1-(pyridazin-4-yl)azetidine-3-carboxamide]",130 nM
16,"CO[C@@H](C(=O)N1CCC(c2ccc(NC(=O)C3CN(c4cccnn4)C3)cc2)CC1)c1ccccc1 [Example 407, N-(4-{1-[(2R)-2-methoxy-2-phenylacetyl]piperidin-4-yl}phenyl)-1-(pyridazin-3-yl)azetidine-3-carboxamide]",1.01 nM
17,"O=C(Nc1ccc(C2CCN(C(=O)Cc3ccc(Cl)cc3Cl)CC2)cc1)C1CN(c2cccnn2)C1 [Example 405, N-(4-{1-[(2,4-dichlorophenyl)acetyl]piperidin-4-yl}phenyl)-1-(pyridazin-3-yl)azetidine-3-carboxamide]",6.75 nM
